In patent US8106055B2, “Substituted amide compounds” (Gruenenthal GmbH, priority 2007, dated 2012):

How the values were obtained:
[1] = molecular target: T1, serotonin (5-HT) reuptake (Rattus norvegicus, UniProt P31652); test: Inhibition of serotonin (5HT) reuptake in synaptosomes from rat brain; format: biochemical; details: test concentration of 10 μM
T1 construct: synaptosomes are freshly isolated from areas of the rat brain; from tissue; host or cells: rat brain synaptosomes (P2 fraction)
Method in brief: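 Compounds screened at 10 μM and reported as percent inhibition of serotonin uptake. Uptake measured in a freshly prepared P2 synaptosomal fraction from rat brain.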

[2] = molecular target: T2, human bradykinin 1 receptor (B1R) (Homo sapiens, UniProt P46663); test: Functional investigation on the human bradykinin 1 receptor (B1R), Ca2+ FLIPR assay in CHO K1 hB1R cells; format: cell-based; details: B1R antagonism human; test substance 10 μM; Ca2+ FLIPR, CHO K1 hB1R cells
T2 construct: expressed in transfected cells; host or cells: CHO K1 cells
T2 sequence (P46663 1-353): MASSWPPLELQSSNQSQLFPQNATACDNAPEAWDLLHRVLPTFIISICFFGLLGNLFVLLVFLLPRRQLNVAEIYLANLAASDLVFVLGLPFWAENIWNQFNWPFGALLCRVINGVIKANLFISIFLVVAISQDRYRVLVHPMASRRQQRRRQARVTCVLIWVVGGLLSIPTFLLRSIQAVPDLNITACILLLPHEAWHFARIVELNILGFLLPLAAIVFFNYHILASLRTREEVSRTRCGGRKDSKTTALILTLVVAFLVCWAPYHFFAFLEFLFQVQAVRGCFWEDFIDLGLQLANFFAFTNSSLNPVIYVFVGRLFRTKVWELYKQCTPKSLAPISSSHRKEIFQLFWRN
Method in brief: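 Fluo-4 Ca2+ readout, peak fluorescence. Stable CHO K1 transfectants; compound pre-incubated 10-20 min, then EC80 agonist—Lys-Des-Arg9-BK for hB1R, Des-Arg9-BK for rB1R. % inhibition vs maximal inhibition; IC50 from multiple concentrations, duplicate/triplicate, ≥2 independent runs.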

T1 sequence (P31652 whole entry): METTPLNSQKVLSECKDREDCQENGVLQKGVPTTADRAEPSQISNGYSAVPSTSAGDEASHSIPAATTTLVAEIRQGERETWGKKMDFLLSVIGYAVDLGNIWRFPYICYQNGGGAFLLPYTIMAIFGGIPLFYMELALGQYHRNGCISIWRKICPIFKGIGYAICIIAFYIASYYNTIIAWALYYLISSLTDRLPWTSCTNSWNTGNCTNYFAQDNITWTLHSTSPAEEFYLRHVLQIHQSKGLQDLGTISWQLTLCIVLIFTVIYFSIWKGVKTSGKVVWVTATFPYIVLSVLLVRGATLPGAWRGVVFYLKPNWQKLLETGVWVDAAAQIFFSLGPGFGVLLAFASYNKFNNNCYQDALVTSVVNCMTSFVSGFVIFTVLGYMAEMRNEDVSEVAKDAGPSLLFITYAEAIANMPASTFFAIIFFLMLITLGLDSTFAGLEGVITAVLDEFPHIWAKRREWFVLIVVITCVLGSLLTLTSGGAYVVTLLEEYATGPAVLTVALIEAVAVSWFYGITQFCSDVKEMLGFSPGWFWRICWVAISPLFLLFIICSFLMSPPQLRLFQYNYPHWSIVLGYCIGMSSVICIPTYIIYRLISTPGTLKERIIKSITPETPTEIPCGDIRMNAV

Row | SMILES | 5-HT (inhibition of reuptake of serotonin, % inhibition) [1] [%] | B1R Ant. h [10 μM] % Inhibition [2] [%] | 5-HT (inhibition of reuptake of serotonin, % inhibition) ([1]; 10 µM) [%]
1 | COc1cc(C)c(S(=O)(=O)N2CCCC(OCC(=O)NCC3CCC(C(CCc4ccccc4)N(C)C)CC3)C2)c(C)c1C (stereo not shown) [Example 551] | 85 | 94 | 
2 | CN(C)C(CCc1ccccc1)C1CCC(CNC(=O)COC2CCN(S(=O)(=O)c3cccc(C(F)(F)F)c3)C2)CC1 (stereo not shown) [Example 552] | 90 | 49 | 
3 | CN(C)C(c1ccc(F)cc1)C1CCC(CCNC(=O)COC2CCN(S(=O)(=O)c3ccccc3)CC2)CC1 (stereo not shown) [Example 553] | 94 | −21 | 
4 | COc1cc(C)c(S(=O)(=O)N(CCOCC(=O)NCCC2CCC(C(c3ccc(F)cc3)N(C)C)CC2)Cc2ccccc2)c(C)c1C (stereo not shown) [Example 554] | 92 | 23 | 
5 | COc1ccc(S(=O)(=O)N2CCCCC2COCC(=O)NC2CCC(C(c3ccc(F)cc3)N(C)C)CC2)cc1OC (stereo not shown) [Example 555] | 86 | −14 | 
6 | CN(C)C(CCc1ccccc1)C1CCC(CNC(=O)COCCN(C)S(=O)(=O)c2cccc(C(F)(F)F)c2)CC1 (stereo not shown) [Example 556] | 86 | 82 | 
7 | CN(C)C(CCc1ccccc1)C1CCC(CNC(=O)COC2CCN(S(=O)(=O)c3ccc(Cl)cc3)C2)CC1 (stereo not shown) [Example 557] | 88 | 20 | 
8 | CN(C)C(CCc1ccccc1)C1CCC(CNC(=O)COC2CCCN(S(=O)(=O)c3ccccc3)C2)CC1 (stereo not shown) [Example 558] | 92 | 14 | 
9 | COc1ccc(S(=O)(=O)N2CCCCC2COCC(=O)NCC2CCC(C(CCc3ccccc3)N(C)C)CC2)cc1OC (stereo not shown) [Example 559] |  | 2 | 84
10 | COc1cc(C)c(S(=O)(=O)N(CCOCC(=O)NCC2CCC(C(c3ccc(Cl)cc3)N(C)C)CC2)Cc2ccccc2)c(C)c1C (stereo not shown) [Example 560] | 47 | 16 | 
11 | COc1cc(C)c(S(=O)(=O)N2CCC(CCOCC(=O)NCCC3CCC(C(c4ccc(Cl)cc4)N(C)C)CC3)CC2)c(C)c1C (stereo not shown) [Example 561] | 79 | −1 | 
12 | COc1cc(C)c(S(=O)(=O)N(CCOCC(=O)NCC2CCC(C(CCc3ccccc3)N(C)C)CC2)Cc2ccccc2)c(C)c1C (stereo not shown) [Example 562] | 96 | 91 | 
13 | COc1cc(C)c(S(=O)(=O)N(CCOCC(=O)NCC2CCC(C(c3ccc(F)cc3)N(C)C)CC2)Cc2ccccc2)c(C)c1C (stereo not shown) [Example 563] | 90 | 54 | 
14 | COc1cc(C)c(S(=O)(=O)N2CCC(OCC(=O)NCC3CCC(C(CCc4ccccc4)N(C)C)CC3)C2)c(C)c1 (stereo not shown) [Example 565] | 94 | 102 | 
15 | COc1ccc(S(=O)(=O)N2CCC(OCC(=O)NCC3CCC(C(CCc4ccccc4)N(C)C)CC3)C2)cc1OC (stereo not shown) [Example 566] | 87 | 1 | 
16 | CN(C)C(CCc1ccccc1)C1CCC(CNC(=O)COCCN(C)S(=O)(=O)c2ccc(OC(F)(F)F)cc2)CC1 (stereo not shown) [Example 567] | 93 | 75 | 

Row | SMILES | 5-HT (inhibition of reuptake of serotonin, % inhibition) [1] [%] | B1R Ant. h [10 μM] % Inhibition [2] [%] | 5-HT (inhibition of reuptake of serotonin, % inhibition) ([1]; 10 µM) [%]
17 | CN(C)C(c1ccc(F)cc1)C1CCC(CNC(=O)COC2CCN(S(=O)(=O)c3ccccc3)CC2)CC1 (stereo not shown) [Example 568] | 97 | −20 | 
18 | COc1cc(C)c(S(=O)(=O)N(CCOCC(=O)NCCC2CCC(C(c3ccc(Cl)cc3)N(C)C)CC2)Cc2ccccc2)c(C)c1 (stereo not shown) [Example 569] | 52 | 14 | 
19 | COc1ccc(S(=O)(=O)N2CCCCC2COCC(=O)NCC2CCC(C(CCc3ccccc3)N(C)C)CC2)cc1OC (stereo not shown) [Example 570] |  | −18 | 87
20 | COc1ccc(S(=O)(=O)N(C)CCOCC(=O)NCC2CCC(C(CCc3ccccc3)N(C)C)CC2)cc1OC (stereo not shown) [Example 571] | 88 | −10 | 
21 | COc1ccc(S(=O)(=O)N2CCCC2COCC(=O)NCC2CCC(C(CCc3ccccc3)N(C)C)CC2)cc1 (stereo not shown) [Example 572] | 93 | 50 | 
22 | CN(C)C(CCc1ccccc1)C1CCC(CNC(=O)COC2CCN(S(=O)(=O)c3ccccc3)C2)CC1 (stereo not shown) [Example 573] | 100 | −4 | 
23 | CN(C)C(CCc1ccccc1)C1CCC(CNC(=O)COC2CCN(S(=O)(=O)c3ccc(F)cc3)C2)CC1 (stereo not shown) [Example 574] | 94 | 2 | 
24 | CN(C)C(c1ccc(Cl)cc1)C1CCC(CCNC(=O)COCCN(C)S(=O)(=O)c2ccc(OC(F)(F)F)cc2)CC1 (stereo not shown) [Example 575] | 77 | −4 | 
25 | COc1cc(C)c(S(=O)(=O)N(CCOCC(=O)NCCC2CCC(C(c3ccc(Cl)cc3)N(C)C)CC2)Cc2ccccc2)c(C)c1C (stereo not shown) [Example 576] | 73 | −6 | 
26 | CN(C)C(CCc1ccccc1)C1CCC(CNC(=O)COC2CCN(S(=O)(=O)c3ccccc3)CC2)CC1 (stereo not shown) [Example 578] | 94 | −14 | 
27 | CN(C)C(CCc1ccccc1)C1CCC(CNC(=O)COCCN(C)S(=O)(=O)c2c(Cl)cccc2Cl)CC1 (stereo not shown) [Example 580] |  | 95 | 77
28 | COc1ccc(S(=O)(=O)N2CCCCC2COCC(=O)NCCC2CCC(C(c3cccc(F)c3)N(C)C)CC2)cc1OC (stereo not shown) [Example 581] |  | 2 | 70
29 | CN(C)C(c1ccc(F)cc1)C1CCC(CNC(=O)COCCC2CCN(S(=O)(=O)c3ccccc3)CC2)CC1 (stereo not shown) [Example 583] | 77 | −27 | 
30 | CN(C)C(c1ccc(Cl)cc1)C1CCC(CNC(=O)COCCC2CCN(S(=O)(=O)c3ccccc3)CC2)CC1 (stereo not shown) [Example 584] | 64 | −20 | 
31 | CN(C)C(c1ccc(F)cc1)C1CCC(CCNC(=O)COCCN(C)S(=O)(=O)c2ccc(Cl)cc2Cl)CC1 (stereo not shown) [Example 586] | 73 | 95 | 
32 | Cc1cc(C)c(S(=O)(=O)N(C)CCOCC(=O)NCCC2CCC(C(c3cccc(F)c3)N(C)C)CC2)c(C)c1 (stereo not shown) [Example 587] | 86 | −14 | 
